The target in this assay is T1, Orexin receptor type 2 (Homo sapiens, UniProt O43614).
T1 sequence (O43614 whole entry): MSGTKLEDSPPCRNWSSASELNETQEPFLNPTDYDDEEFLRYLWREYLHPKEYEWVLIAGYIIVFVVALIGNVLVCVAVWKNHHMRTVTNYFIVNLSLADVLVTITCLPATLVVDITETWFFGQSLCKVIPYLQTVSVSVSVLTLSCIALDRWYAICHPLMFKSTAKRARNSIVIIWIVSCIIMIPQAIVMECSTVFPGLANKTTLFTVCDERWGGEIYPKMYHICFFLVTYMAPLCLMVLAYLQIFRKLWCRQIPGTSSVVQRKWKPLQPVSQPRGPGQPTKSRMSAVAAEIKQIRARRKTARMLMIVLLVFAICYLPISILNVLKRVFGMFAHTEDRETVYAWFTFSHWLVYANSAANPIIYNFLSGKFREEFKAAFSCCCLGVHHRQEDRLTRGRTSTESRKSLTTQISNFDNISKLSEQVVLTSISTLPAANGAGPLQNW
Nature of the assay: FLIPR Assay: In a typical experiment the OX1 and OX2 receptor antagonistic activity of the compounds of the present invention was determined in accordance with the following experimental method. For intracellular calcium measurements, Chinese hamster ovary (CHO) cells expressing the rat orexin-1 receptor or the human orexin-2 receptor, are grown in Iscove's modified DMEM containing 2 mM L-glutamine, […], 1% hypoxanthine-thymidine supplement, 100 U/ml penicillin, 100 μg/ml streptomycin and 10% heat-inactivated fetal calf serum (FCS). The cells are seeded at 20,000 cells/well into Becton-Dickinson black 384-well clear bottom sterile plates coated with poly-D-lysine. All reagents are from GIBCO-Invitrogen Corp. The seeded plates are incubated overnight at 37° C. and 5% CO2. Ala-6,12 human orexin-A as the agonist is prepared as a 1 mM stock solution in 1% bovine serum albumin (BSA) and diluted in assay buffer (HBSS containing 20 mM HEPES, 0.1% BSA and 2.5 mM probenecid, pH7.4) for use in the assay at a final concentration of 70 pM. Test compounds are prepared as 10 mM stock solution in DMSO, then diluted in 384-well plates, first in DMSO, then assay buffer. On the day of the assay, cells are washed 3 times with 100 μl assay buffer and then incubated for 60 min (37° C., 5% CO2) in 60 μl assay buffer containing […] Fluo-4AM ester, 0.02% pluronic acid, and 1% BSA. Format: cell-based.

A word on the IC50: it is the concentration at which inhibition is half-maximal. Regarding `C[C@@H]1CC[C@@H](Sc2nccn3nccc23)CN1C(=O)c1ccccc1-n1nccn1`, the IC50 came out at 15.7 nM.

These data come from ChEMBL document CHEMBL5727479, “Fused heteroaryl derivatives as orexin receptor antagonists” (2020).
